“And” between values parts separate entries of the source, which are not always exact repeats. Equal values may be shown once.
System: pig skin
Experiment: TUNEL assay, cell death rate according to sucrose concentration in the cryoprotectant
Type: cell-based
Details: for cell death rate, AVE: average of 6 samples
Description: Because human skin tissue harvested from a donor (cadaver) is prohibited from being used in an experiment, pig skin—which is the closest to human skin—is used for preparing ten (10) of both cryopreserved skins and glycerol-preserved skins according to the following methods of Example and Comparative Example. To investigate the change of the cell death rate according to the difference of sucrose concentration, the cryopreserved allograft skin was prepared by the same method as in the Example except that the sucrose concentration in the cryoprotectant was 5, 10, 15, 20, 25, 30, 35 and 40 wt %, and it was then analyzed by TUNEL assay. TUNEL assay was carried out by using an In Situ Cell Death Detection Kit, Fluorescein (Roche, Germany) according to the manufacturer's instructions, and 4′,6-diamidino-2-phenylindole (DAPI) was used as a fluorescent marker. The results of cell death rate are shown in the following Table 1, and represented in FIG. 6 as a graph.

With OC[C@H]1O[C@@](CO)(O[C@H]2O[C@H](CO)[C@@H](O)[C@H](O)[C@H]2O)[C@@H](O)[C@@H]1O [Sucrose, sucrose] the cell death rate (sucrose 25 to 40 wt % in the final concentration, Table 1 and FIG. 6) was “quite low”, the “cell death rate, AVE” value (sucrose conc. 5 wt % in cryoprotectant) was 48% and the cell death rate (sucrose conc. 5 wt % in cryoprotectant, individual samples n 1-6) was 65% and 45% and 36% and 64% and 39% and 41%. For the same compound, the “cell death rate, AVE” value (sucrose conc. 10 wt % in cryoprotectant) was 47%, the cell death rate (sucrose conc. 10 wt % in cryoprotectant, individual samples n 1-6) was 26% and 49% and 55% and 57% and 56% and 41% and the “cell death rate, AVE” value (sucrose conc. 15 wt % in cryoprotectant) was 41%. For the same compound, the cell death rate (sucrose conc. 15 wt % in cryoprotectant, individual samples n 1-6) was 25% and 31% and 22% and 47% and 57% and 66%, the “cell death rate, AVE” value (sucrose conc. 20 wt % in cryoprotectant) was 35% and the cell death rate (sucrose conc. 20 wt % in cryoprotectant, individual samples n 1-6) was 43% and 35% and 21% and 22% and 23% and 68%. For the same compound, the “cell death rate, AVE” value (sucrose conc. 25 wt % in cryoprotectant) was 28%, the cell death rate (sucrose conc. 25 wt % in cryoprotectant, individual samples n 1-6) was 19% and 23% and 28% and 64% and 12% and 20% and the “cell death rate, AVE” value (sucrose conc. 30 wt % in cryoprotectant) was 20%. The cell death rate (sucrose conc. 30 wt % in cryoprotectant, individual samples n 1-6) was 20% (2×) and 23% and 39% and 11% and 5%, the “cell death rate, AVE” value (sucrose conc. 35 wt % in cryoprotectant) was 23% and the cell death rate (sucrose conc. 35 wt % in cryoprotectant, individual samples n 1-6) was 30% and 25% and 10% and 23% and 28% and 21%. The “cell death rate, AVE” value (sucrose conc. 40 wt % in cryoprotectant) was 28% and the cell death rate (sucrose conc. 40 wt % in cryoprotectant, individual samples n 1-6) was 13% and 36% and 33% and 41% and 26% and 20%.
